Measured values taken from ChEMBL document CHEMBL4419178, “Yap1 inhibitors that target the interaction of yap1 with oct4” (2018).
Active and inactive are the calls of the source. The rule behind the calls is not given here.

Key:
[1] = molecular target: Transcriptional coactivator YAP1 (Homo sapiens) (UniProt P46937); experiment: Inhibition of YAP1 in human NCI-H1650 cells assessed as disruption in YAP1/OCT4 interaction at 5 uM incubated for 72 hrs by immunoprecipitation-Westem blot assay; format: cell-based
Transcriptional coactivator YAP1 (Homo sapiens), sequence (P46937 whole entry): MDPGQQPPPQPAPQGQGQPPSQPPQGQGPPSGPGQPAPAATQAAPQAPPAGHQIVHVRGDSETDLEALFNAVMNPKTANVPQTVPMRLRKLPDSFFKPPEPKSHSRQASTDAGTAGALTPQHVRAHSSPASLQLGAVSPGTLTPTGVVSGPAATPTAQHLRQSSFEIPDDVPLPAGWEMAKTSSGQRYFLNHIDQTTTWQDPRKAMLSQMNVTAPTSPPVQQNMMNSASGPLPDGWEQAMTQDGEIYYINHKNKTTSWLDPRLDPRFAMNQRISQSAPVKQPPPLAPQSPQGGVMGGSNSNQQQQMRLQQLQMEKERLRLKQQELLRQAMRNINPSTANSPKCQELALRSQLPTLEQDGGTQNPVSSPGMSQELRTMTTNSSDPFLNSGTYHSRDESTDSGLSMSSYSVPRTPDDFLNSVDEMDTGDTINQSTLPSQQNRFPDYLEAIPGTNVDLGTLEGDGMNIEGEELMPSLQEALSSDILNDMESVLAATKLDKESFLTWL

[2] = molecular target: Transcriptional coactivator YAP1 (Homo sapiens) (UniProt P46937); experiment: Inhibition of YAP1 in human A549 cells assessed as disruption in YAP1/OCT4 interaction at 5 uM incubated for 72 hrs by immunoprecipitation-Westem blot assay; format: cell-based
NCI-H1650 [3] = experiment: Inhibition of self-renewal capacity in stem-like side-population cells of human NCI-H1650 cells assessed as reduction in number of spheres at 1 to 20 uM incubated for 10 days by sphere formation assay; format: functional, cell-based
NCI-H1650 [4] = experiment: Cytotoxicity in human NCI-H1650 cells assessed as reduction in cell viability at 0.5 to 20 uM incubated for 72 hrs by MTT assay; format: functional, cell-based
A549 = experiment: Cytotoxicity in human A549 cells assessed as reduction in cell viability at 0.5 to 20 uM incubated for 72 hrs by MTT assay; format: functional, cell-based
[5] = molecular target: Transcriptional coactivator YAP1 (Homo sapiens) (UniProt P46937); experiment: Inhibition of YAP1 in human NCI-H1650 cells assessed as reduction in Sox2 protein expression at 5 uM by luciferase reporter gene assay; format: cell-based
NCI-H1650 [6] = experiment: Inhibition of self-renewal capacity in stem-like side-population cells of human NCI-H1650 cells assessed as reduction in number of spheres at 5 uM incubated for 10 days by sphere formation assay relative to control; format: functional; conditions: NCI-H1650, 240 h
NCI-H1703 [7] = experiment: Cytotoxicity in human NCI-H1703 cells assessed as reduction in cell viability at 0.5 to 20 uM incubated for 96 hrs by MTT assay; format: functional, cell-based
NCI-H226 = experiment: Cytotoxicity in human NCI-H226 cells assessed as reduction in cell viability at 0.5 to 20 uM incubated for 96 hrs by MTT assay; format: functional, cell-based
NCI-H1650 [8] = experiment: Inhibition of adherence-independent cell growth in human NCI-H1650 cells at 5 uM incubated for 33 days; format: functional, cell-based
NCI-H1650 [9] = experiment: Inhibition of adherence-independent cell growth in human NCI-H1650 cells at 10 uM incubated for 33 days; format: functional, cell-based
NCI-H146 [10] = experiment: Inhibition of self-renewal capacity in methotrexate insensitive stem-like side-population cells of human NCI-H146 cells assessed as reduction in number of spheres at 2 uM incubated for 3 days after 7 days methotrexate exposure by sphere formation assay; format: functional
HCC827 = experiment: Cytotoxicity in erlotinib-resistant human HCC827 cells assessed as reduction in cell viability at 1 to 20 uM by MTT assay; format: functional, cell-based
PC-9 = experiment: Cytotoxicity in gefitinib resistant human PC9 cells assessed as reduction in cell viability at 1 to 20 uM by MTT assay; format: functional, cell-based
NCI-H1975 = experiment: Cytotoxicity in gefitinib and erlotinib resistant human NCI-H1975 cells assessed as reduction in cell viability at 1 to 10 uM incubated for 72 hrs by MTT assay; format: functional, cell-based
[11] = molecular target: Transcriptional coactivator YAP1 (Homo sapiens) (UniProt P46937); experiment: Inhibition of YAP1 in human NCI-H1650 cells assessed as suppression of Sox2 mRNA expression at 5 to 10 uM incubated for 72 hrs by RT-PCR method; format: cell-based
[12] = molecular target: Transcriptional coactivator YAP1 (Homo sapiens) (UniProt P46937); experiment: Inhibition of YAP1 in human NCI-H1703 cells assessed as suppression of Sox2 mRNA expression at 5 to 10 uM incubated for 72 hrs by RT-PCR method; format: cell-based
[13] = molecular target: Transcriptional coactivator YAP1 (Homo sapiens) (UniProt P46937); experiment: Inhibition of YAP1 in human NCI-H146 cells assessed as suppression of Sox2 mRNA expression at 5 to 10 uM incubated for 72 hrs by RT-PCR method; format: cell-based
NCI-H1650 [14] = experiment: Effect on expression of Oct4 mRNA expression in human NCI-H1650 cells at 5 to 10 uM incubated for 72 hrs by RT-PCR method; format: cell-based; conditions: nci-h1650, 72 h
NCI-H1650 [15] = experiment: Effect on expression of Nanog mRNA expression in human NCI-H1650 cells at 5 to 10 uM incubated for 72 hrs by RT-PCR method; format: cell-based; conditions: nci-h1650, 72 h
NCI-H1703 [16] = experiment: Effect on expression of Oct4 mRNA expression in human NCI-H1703 cells at 5 to 10 uM incubated for 72 hrs by RT-PCR method; format: cell-based; conditions: nci-h1703, 72 h
NCI-H1703 [17] = experiment: Effect on expression of Nanog mRNA expression in human NCI-H1703 cells at 5 to 10 uM incubated for 72 hrs by RT-PCR method; format: cell-based; conditions: nci-h1703, 72 h
NCI-H146 [18] = experiment: Effect on expression of Oct4 mRNA expression in human NCI-H146 cells at 5 to 10 uM incubated for 72 hrs by RT-PCR method; format: cell-based; conditions: nci-h146, 72 h
NCI-H146 [19] = experiment: Effect on expression of Nanog mRNA expression in human NCI-H146 cells at 5 to 10 uM incubated for 72 hrs by RT-PCR method; format: cell-based; conditions: nci-h146, 72 h
NCI-H1650 [20] = experiment: Inhibition of YAP1/TEAD2 interaction in human NCI-H1650 cells assessed as suppression of CTGF mRNA expression at 5 to 10 uM incubated for 72 hrs by RT-PCR method; format: cell-based
NCI-H1703 [21] = experiment: Inhibition of YAP1/TEAD2 interaction in human NCI-H1703 cells assessed as suppression of CTGF mRNA expression at 5 to 10 uM incubated for 72 hrs by RT-PCR method; format: cell-based
[22] = molecular target: Transcriptional coactivator YAP1 (Homo sapiens) (UniProt P46937); experiment: Inhibition of YAP1 in human NCI-H1650 cells assessed as suppression of fibronectin mRNA expression at 5 to 10 uM incubated for 72 hrs by RT-PCR method; format: cell-based
[23] = molecular target: Transcriptional coactivator YAP1 (Homo sapiens) (UniProt P46937); experiment: Inhibition of YAP1 in human NCI-H1650 cells assessed as suppression of vimentin mRNA expression at 5 to 10 uM incubated for 72 hrs by RT-PCR method; format: cell-based
[24] = molecular target: Transcriptional coactivator YAP1 (Homo sapiens) (UniProt P46937); experiment: Inhibition of YAP1 in human NCI-H1703 cells assessed as suppression of fibronectin mRNA expression at 5 to 10 uM incubated for 72 hrs by RT-PCR method; format: cell-based
[25] = molecular target: Transcriptional coactivator YAP1 (Homo sapiens) (UniProt P46937); experiment: Inhibition of YAP1 in human NCI-H1703 cells assessed as suppression of vimentin mRNA expression at 5 to 10 uM incubated for 72 hrs by RT-PCR method; format: cell-based
HUVEC = experiment: Inhibition of angiogenic tubule formation in HUVEC at 1 to 5 uM incubated for 18 to 24 hrs; format: functional, cell-based; conditions: Homo sapiens
NCI-H1703 [26] = experiment: Inhibition of adherence-independent cell growth in human NCI-H1703 cells at 10 uM incubated for 33 days; format: functional, cell-based
NCI-H1703 [27] = experiment: Inhibition of adherence-independent cell growth in human NCI-H1703 cells at 5 uM incubated for 33 days; format: functional, cell-based
Homo sapiens [28] = species on record: Homo sapiens; experiment: Cytotoxicity in human 92-1 cells assessed as reduction in cell viability at 0.5 to 20 uM incubated for 72 hrs by MTT assay; format: functional, cell-based
SK-MEL-5 = experiment: Cytotoxicity in human SK-MEL-5 cells assessed as reduction in cell viability at 0.5 to 20 uM incubated for 72 hrs by MTT assay; format: functional, cell-based
Homo sapiens [29] = species on record: Homo sapiens; experiment: Cytotoxicity in human WM1366 cells assessed as reduction in cell viability at 0.5 to 20 uM incubated for 72 hrs by MTT assay; format: functional, cell-based

Row | SMILES | inhibition [1] | inhibition [2] | inhibition (NCI-H1650 [3]) | Activity (NCI-H1650 [4]) | Activity (A549) | inhibition [5] [%] | inhibition at 5 µM (NCI-H1650 [6]) [%] | Activity (NCI-H1703 [7]) | Activity (NCI-H226) | inhibition (NCI-H1650 [8]) | inhibition (NCI-H1650 [9]) | inhibition (NCI-H146 [10]) | Activity (HCC827) | Activity (PC-9) | Activity (NCI-H1975) | inhibition [11] | inhibition [12] | inhibition [13] | Activity (NCI-H1650 [14]) | Activity (NCI-H1650 [15]) | other results
1 | COC(=O)[C@H](Cc1ccc(OCc2ccccc2)cc1)NC(=O)CC1CCN(C(=O)CCc2ccc(C#N)cc2)CC1 | Active | Active | Active | Active | Active | 77.6 | 80.2 | Active | Active | Active | Active | Active | Active | Active | Active | Active | Active | Active | Non-Toxic | Non-Toxic | Activity (NCI-H1703 [16]): Non-Toxic; Activity (NCI-H1703 [17]): Non-Toxic; Activity (NCI-H146 [18]): Non-Toxic; Activity (NCI-H146 [19]): Non-Toxic; inhibition (NCI-H1650 [20]): inactive; inhibition (NCI-H1703 [21]): inactive; inhibition [22]: Active; inhibition [23]: Active; inhibition [24]: Active; inhibition [25]: Active; inhibition (HUVEC): Active; inhibition (NCI-H1703 [26]): Active; inhibition (NCI-H1703 [27]): Active; Activity (Homo sapiens [28]): Active; Activity (SK-MEL-5): Active; Activity (Homo sapiens [29]): Active
2 | COC(=O)[C@H](Cc1ccc(OCc2ccccc2)cc1)NC(=O)CC1CCN(C(=O)CCc2ccc(Cl)c(Cl)c2)CC1 | Active | Active | Active | Active | Active | 85.5 | 99 | Active | Active | Active | Active | Active | Active | Active | Active | Active | Active | Active | Non-Toxic | Non-Toxic | Activity (NCI-H1703 [16]): Non-Toxic; Activity (NCI-H1703 [17]): Non-Toxic; Activity (NCI-H146 [18]): Non-Toxic; Activity (NCI-H146 [19]): Non-Toxic; inhibition (NCI-H1650 [20]): inactive; inhibition (NCI-H1703 [21]): inactive; inhibition [22]: Active; inhibition [23]: Active; inhibition [24]: Active; inhibition [25]: Active; inhibition (HUVEC): Active; inhibition (NCI-H1703 [26]): Active; inhibition (NCI-H1703 [27]): Active; Activity (Homo sapiens [28]): Active; Activity (SK-MEL-5): Active; Activity (Homo sapiens [29]): Active
